In the first data set the target is hERG channels (Homo sapiens (Human), UniProt Q12809). The data set is described as follows: hERG Manual Patch Clamp Assay (HEK 293 cells stably expressing hERG channels). The data set is classed as cell-based. To be noted: human, HEK 293 cells stably expressing hERG channels, pH 7.4.
Sequence of hROMK (human Kir1.1) (P48048 whole entry): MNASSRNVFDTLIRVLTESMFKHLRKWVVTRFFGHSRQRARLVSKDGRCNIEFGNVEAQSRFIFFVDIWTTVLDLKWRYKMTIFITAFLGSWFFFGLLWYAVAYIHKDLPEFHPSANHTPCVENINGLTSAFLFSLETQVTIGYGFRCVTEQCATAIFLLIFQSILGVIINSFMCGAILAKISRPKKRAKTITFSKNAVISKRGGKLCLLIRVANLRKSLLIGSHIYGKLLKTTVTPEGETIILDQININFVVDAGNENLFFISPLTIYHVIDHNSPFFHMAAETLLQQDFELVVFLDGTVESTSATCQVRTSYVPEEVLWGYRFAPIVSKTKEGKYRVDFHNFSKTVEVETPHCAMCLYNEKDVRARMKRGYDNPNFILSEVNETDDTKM
Sequence of hERG channels (Q12809 whole entry): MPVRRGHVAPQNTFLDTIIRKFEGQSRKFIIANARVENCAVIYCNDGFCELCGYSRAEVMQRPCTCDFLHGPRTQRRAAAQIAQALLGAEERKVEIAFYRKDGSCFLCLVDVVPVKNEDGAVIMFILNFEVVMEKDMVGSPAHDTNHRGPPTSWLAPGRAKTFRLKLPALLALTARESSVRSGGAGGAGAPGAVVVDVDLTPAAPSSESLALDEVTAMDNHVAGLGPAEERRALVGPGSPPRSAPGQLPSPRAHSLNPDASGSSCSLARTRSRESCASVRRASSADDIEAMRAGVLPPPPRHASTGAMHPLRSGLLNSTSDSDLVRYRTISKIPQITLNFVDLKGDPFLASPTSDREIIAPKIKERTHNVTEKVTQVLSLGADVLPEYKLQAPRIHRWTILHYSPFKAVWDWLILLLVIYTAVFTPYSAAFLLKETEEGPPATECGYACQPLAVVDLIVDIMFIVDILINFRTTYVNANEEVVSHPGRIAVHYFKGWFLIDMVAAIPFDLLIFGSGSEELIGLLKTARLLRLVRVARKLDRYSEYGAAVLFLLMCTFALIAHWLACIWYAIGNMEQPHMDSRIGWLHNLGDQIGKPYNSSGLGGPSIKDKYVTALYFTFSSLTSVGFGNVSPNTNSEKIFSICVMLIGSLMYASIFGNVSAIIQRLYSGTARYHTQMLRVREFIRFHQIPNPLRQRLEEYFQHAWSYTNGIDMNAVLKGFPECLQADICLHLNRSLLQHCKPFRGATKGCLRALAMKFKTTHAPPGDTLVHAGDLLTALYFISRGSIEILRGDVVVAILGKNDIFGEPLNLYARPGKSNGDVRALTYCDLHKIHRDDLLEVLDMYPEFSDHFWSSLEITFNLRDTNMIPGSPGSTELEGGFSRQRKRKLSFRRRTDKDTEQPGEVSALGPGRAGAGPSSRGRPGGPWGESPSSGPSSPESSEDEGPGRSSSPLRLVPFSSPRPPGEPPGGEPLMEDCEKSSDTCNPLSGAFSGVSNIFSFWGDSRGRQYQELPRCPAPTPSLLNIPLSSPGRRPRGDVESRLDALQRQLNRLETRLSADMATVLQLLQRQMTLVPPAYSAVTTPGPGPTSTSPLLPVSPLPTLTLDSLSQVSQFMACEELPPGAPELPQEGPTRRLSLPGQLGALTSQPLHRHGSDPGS
Experimental: hERG electrophysiology assay: The experimental compounds were assessed for hERG activity on HEK 293 cells stably expressing hERG channels using patch clamp technique. Coverslips plated with hERG expressing cells were placed in the experimental chamber and were perfused with a solution composed of (in mM): 140 NaCl, 4 KCl, 1.8 CaCl2), 1 MgCl2, 10 Glucose, 10 HEPES (pH 7.4, NaOH) at room temperature. Borosilicate patch pipettes had tip resistances of 2-4 Mohms when filled with an internal solution containing: 130 KCl, 1 MgCl2, 1 CaCl2), 10 EGTA, 10 HEPES, 5 ATP-K2 (pH 7.2, KOH). The cells were clamped at −80 mV in whole cell configuration using an Axopatch 200B (Axon instruments, Union City, Calif.) patch clamp amplifier controlled by pClamp (Axon instruments) software. Upon formation of a gigaseal, the following voltage protocol was repeatedly (0.05 Hz) applied to record tail currents: depolarization step from −80 mV to +20 mV for 2 seconds followed by a hyperpolarization step to −65 mV (3 seconds) to elicit tail currents. Compounds were applied after stabilization of tail current. First, tail currents were recorded in presence of extracellular solution alone (control) and subsequently, in extracellular solution containing increasing compound concentrations. Each compound concentration was applied for 2-5 minutes. The percentage inhibition at each concentration was calculated as reduction in peak tail current with respect to the peak tail current recorded in the presence of control solution. Data analysis was performed in a custom made template. The percent inhibitions at different concentrations were plotted to obtain a concentration response curve, which was subsequently fitted with a four parameter equation to calculate hERG IC50 value.
A lower hERG % Inhibition value indicates less inhibition of the hERG current
As to `Cc1c([C@@H](O)CNCc2ccc(-n3cc(C#N)c(C4CC4)n3)nc2)ccc2c1COC2=O` [Example 116, (R)-3-cyclopropyl-1-(5-(((2-hydroxy-2-(4-methyl-1-oxo-1,3-dihydroisobenzofuran-5-yl)ethyl)amino)methyl)pyridin-2-yl)-1H-pyrazole-4-carbonitrile], the inhibition at 1 µM is 76%. On the same count and under the same terms, next, `CCOC(=O)c1nn(-c2cc(C)c(C#N)cn2)cc1CNC[C@H](O)c1ccc2c(c1C)COC2=O` [Example 98, ethyl (R)-1-(5-cyano-4-methylpyridin-2-yl)-4-(((2-hydroxy-2-(4-methyl-1-oxo-1,3-dihydroisobenzofuran-5-yl)ethyl)amino)methyl)-1H-pyrazole-3-carboxylate]: 54%; `Cc1cc(-c2ccc(CN(C)CC(O)c3ccc4c(c3C)COC4=O)cn2)ncc1C#N` (single isomer, unassigned) [Example 22-I, 5′-(((2-hydroxy-2-(4-methyl-1-oxo-1,3-dihydroisobenzofuran-5-yl)ethyl)(methyl)amino)methyl)-4-methyl-[2,2′-bipyridine]-5-carbonitrile]: 9.5%.

In turn, `Cc1c([C@@H](O)CNCc2cnn(-c3ccc4oc(=O)n(C)c4c3)c2)ccc2c1COC2=O` [Example 81, (R)-5-(4-(((2-hydroxy-2-(4-methyl-1-oxo-1,3-dihydroisobenzofuran-5-yl)ethyl)amino)methyl)-1H-pyrazol-1-yl)-3-methylbenzo[d]oxazol-2(3H)-one] had an inhibition at 1 µM of 6%. In turn, `Cc1c(C(O)CN(C)Cc2ccc(-c3ccc(C#N)c(F)c3)nc2)ccc2c1COC2=O` (single isomer, unassigned) [Example 21-I, 2-fluoro-4-(5-(((2-hydroxy-2-(4-methyl-1-oxo-1,3-dihydroisobenzofuran-5-yl)ethyl)(methyl)amino)methyl)pyridin-2-yl)benzonitrile] had an inhibition at 1 µM of 68%. On the same count and under the same terms, the figure for `Cc1c(C(O)CNCc2ccc(-c3ccc(C#N)c(F)c3)nc2)ccc2c1COC2=O` (stereo not shown) [Example 3-I, 2-fluoro-4-(5-(((2-hydroxy-2-(4-methyl-1-oxo-1,3-dihydroisobenzofuran-5-yl)ethyl)amino)methyl)pyridin-2-yl)benzonitrile] is 66%.

Turning to `Cc1cc(-c2ccc(CNCC(O)c3ccc4c(c3C)COC4=O)cn2)ncc1C#N` (single isomer, unassigned) [Example 4-I, 5′-(((2-hydroxy-2-(4-methyl-1-oxo-1,3-dihydroisobenzofuran-5-yl)ethyl)amino)methyl)-4-methyl-[2,2′-bipyridine]-5-carbonitrile], testing at 1 µM gave an inhibition of 22%.

The next data set has as its target hROMK (human Kir1.1) (Homo sapiens (Human), UniProt P48048). The data set is described as follows: Thallium Flux Assay (FluxOR, CHO T-Rex hROMK stable cell line). The data set is classed as cell-based. To be noted: CHO T-Rex hROMK cells, 10-point concentration response curve; read-out: Human ROMK TH Flux IC50.
Experimental: Solutions and reagents: Thallium flux assay was performed using FluxOR kit (F10017, Life Technologies). Loading buffer, assay buffer and stimulus buffer were prepared using kit components.
To prepare 10 ml of loading buffer: 10 μl of FluxOR dye (reconstituted in DMSO) was first added to 100 μl of powerload concentrate and this mix along with 100 μl of Probenicid (100×) was then added to 9.79 ml of HBSS. […] Stimulus buffer was composed of 15 mM Tl2SO4, 0.75 mM K2SO4 in FluxOR chloride free buffer (diluted to 1× using deionized water). The final concentration of Tl2SO4 and K2SO4 in the assay plate was 3 mM and 0.15 mM, respectively.
Plating and induction of cells: The CHO T-Rex hROMK (human Kir1.1) stable cell line was maintained in Ham's F12 media supplemented with 10% FBS, 1% Penicillin-Streptomycin, 500 μg/ml Zeocin and 10 μg/ml Blasticidin at 37° C. in a 5% CO2 incubator. […] The cell suspension was centrifuged at 1200 rpm for 5 min. After discarding the supernatant, the cells were resuspended in fresh growth media and cell concentration was determined using a hemocytometer. […] The assay plate was kept at 37° C. in a 5% CO2 incubator.
Assay protocol: On the day of experiment, media was removed and loading buffer was added (30 μl/well) to the assay plate. The cells were incubated in the loading buffer for 30 minutes at 37° C. The loading buffer was then replaced by assay buffer (30 μl/well) followed by addition of test compounds or controls. […] Each well was read for 90 sec at 2 sec interval and the stimulus buffer was added after 20 seconds of baseline recording. The final DMSO concentration was either 0.5 or 1% in the assay plate. Positive and negative controls were defined by addition of DMSO or 3 μM of a standard ROMK inhibitor, respectively, to the wells instead of a test compound.
A 10-point concentration response curve was used to estimate the IC50 value of test compounds.
Consider `COc1cc(-n2cnc(C)c2)ncc1CNC[C@H](O)c1ccc2c(c1C)COC2=O` [Example 89, (R)-5-(1-hydroxy-2-(((4-methoxy-6-(4-methyl-1H-imidazol-1-yl)pyridin-3-yl)methyl)amino)ethyl)-4-methylisobenzofuran-1(3H)-one], for which the concentration for half-maximal inhibition (IC50) is 92 nM. For the compound `Cc1cn(-c2cc(C)c(CNC[C@H](O)c3ccc4c(c3C)COC4=O)cn2)cn1` [Example 76, (R)-5-(1-hydroxy-2-(((4-methyl-6-(4-methyl-1H-imidazol-1-yl)pyridin-3-yl)methyl)amino)ethyl)-4-methylisobenzofuran-1(3H)-one], the IC50 amounted to 81 nM. Still for that read-out and setting: next, `Cc1nnn(-c2ccc(CNC[C@H](O)c3ccc4c(c3C)COC4=O)cn2)n1` [Example 127, (R)-5-(1-hydroxy-2-(((6-(5-methyl-2H-tetrazol-2-yl)pyridin-3-yl)methyl)amino)ethyl)-4-methylisobenzofuran-1(3H)-one]: 420 nM; `COc1cc(-n2cc(CNC[C@H](O)c3ccc4c(c3C)COC4=O)cn2)ccn1` [Example 80, (R)-5-(1-hydroxy-2-(((1-(2-methoxypyridin-4-yl)-1H-pyrazol-4-yl)methyl)amino)ethyl)-4-methylisobenzofuran-1(3H)-one]: 530 nM; `Cc1ncn(-c2ncc(CNC[C@H](O)c3ccc4c(c3C)COC4=O)cn2)c1C(F)F` [Example 90, (R)-5-(2-(((2-(5-(difluoromethyl)-4-methyl-1H-imidazol-1-yl)pyrimidin-5-yl)methyl)amino)-1-hydroxyethyl)-4-methylisobenzofuran-1(3H)-one]: 230 nM. On the same count and under the same terms, the figure for `CCc1nn(-c2ccc(CNC[C@H](O)c3ccc4c(c3C)COC4=O)cn2)cc1C#N` [Example 103, (R)-3-ethyl-1-(5-(((2-hydroxy-2-(4-methyl-1-oxo-1,3-dihydroisobenzofuran-5-yl)ethyl)amino)methyl)pyridin-2-yl)-1H-pyrazole-4-carbonitrile] is 55.2 nM.

With `Cc1cc(-n2cc(CNC[C@H](NC(=O)CO)c3ccc4c(c3C)COC4=O)cn2)ncc1C#N` [Example 63, (R)-N-(2-(((1-(5-cyano-4-methylpyridin-2-yl)-1H-pyrazol-4-yl)methyl)amino)-1-(4-methyl-1-oxo-1,3-dihydroisobenzofuran-5-yl)ethyl)-2-hydroxyacetamide], the half-maximal inhibitory concentration (IC50) was found to be 130 nM. With `Cc1cc(C#N)cnc1-n1cc(CNC[C@H](O)c2ccc3c(c2C)COC3=O)cn1` [Example 78, (R)-6-(4-(((2-hydroxy-2-(4-methyl-1-oxo-1,3-dihydroisobenzofuran-5-yl)ethyl)amino)methyl)-1H-pyrazol-1-yl)-5-methylnicotinonitrile], the IC50 amounted to 440 nM. Same read-out and setting: the figure for `CCn1c(=O)oc2ccc(-n3cc(CNC[C@H](O)c4ccc5c(c4C)COC5=O)cn3)cc21` [Example 125, (R)-3-ethyl-5-(4-(((2-hydroxy-2-(4-methyl-1-oxo-1,3-dihydroisobenzofuran-5-yl)ethyl)amino)methyl)-1H-pyrazol-1-yl)benzo[d]oxazol-2(3H)-one] is 390 nM; for `Cc1c(C(CO)N(C)Cc2cnc(-c3ccc4oc(=O)n(C)c4c3)nc2)ccc2c1COC2=O` (single isomer, unassigned) [Example 14-I, 5-(5-(((2-hydroxy-1-(4-methyl-1-oxo-1,3-dihydroisobenzofuran-5-yl)ethyl)(methyl)amino)methyl)pyrimidin-2-yl)-3-methylbenzo[d]oxazol-2(3H)-one] it is 4000 nM; for `Cc1cc(-c2nc(CNC[C@H](O)c3ccc4c(c3C)COC4=O)cn2C)ncc1C#N` [Example 86, (R)-6-(4-(((2-hydroxy-2-(4-methyl-1-oxo-1,3-dihydroisobenzofuran-5-yl)ethyl)amino)methyl)-1-methyl-1H-imidazol-2-yl)-4-methylnicotinonitrile] it is 430 nM.

Regarding `Cc1c([C@@H](O)CNCc2cnn(-c3ccc4nncn4n3)c2)ccc2c1COC2=O` [Example 79, (R)-5-(2-(((1-([1,2,4]triazolo[4,3-b]pyridazin-6-yl)-1H-pyrazol-4-yl)methyl)amino)-1-hydroxyethyl)-4-methylisobenzofuran-1(3H)-one], the IC50 amounted to 530 nM. Take `Cc1c([C@@H](O)CNCc2cnn(-c3cccc(N4CCOC4=O)c3)c2)ccc2c1COC2=O` [Example 158, (R)-3-(3-(4-(((2-hydroxy-2-(4-methyl-1-oxo-1,3-dihydroisobenzofuran-5-yl)ethyl)amino)methyl)-1H-pyrazol-1-yl)phenyl)oxazolidin-2-one]: the IC50 was determined as 390 nM. `Cc1c([C@@H](O)CNCc2cnn(-c3cc(N4CCOC4=O)ccn3)c2)ccc2c1COC2=O` [Example 143, (R)-3-(2-(4-(((2-hydroxy-2-(4-methyl-1-oxo-1,3-dihydroisobenzofuran-5-yl)ethyl)amino)methyl)-1H-pyrazol-1-yl)pyridin-4-yl)oxazolidin-2-one]: the IC50 turned out to be 1000 nM. The same measure, in the same setting: next, `CN[C@@H](CNCc1cnn(-c2cc(C)c(C#N)cn2)c1)c1ccc2c(c1C)COC2=O` [Example 64, (R)-4-methyl-6-(4-(((2-(4-methyl-1-oxo-1,3-diydroisobenzofuran-5-yl)-2-(methylamino)ethyl)amino)methyl)-1H-pyrazol-1-yl)nicotinonitrile]: 430 nM; `CC(=O)N(Cc1ccc(-c2ccc(C#N)c(F)c2)cc1)CC(O)c1ccc2c(c1C)COC2=O` (single isomer, unassigned) [Example 34-I, N-((4′-cyano-3′-fluoro-[1,1′-biphenyl]-4-yl)methyl)-N-(2-hydroxy-2-(4-methyl-1-oxo-1,3-dihydroisobenzofuran-5-yl)ethyl)acetamide]: 780 nM. Consider `Cc1cc(-n2cc(CCNC(=O)Cc3ccc4c(c3C)COC4=O)cn2)ncc1C#N` [Example 38, N-(2-(1-(5-cyano-4-methylpyridin-2-yl)-1H-pyrazol-4-yl)ethyl)-2-(4-methyl-1-oxo-1,3-dihydroisobenzofuran-5-yl)acetamide], for which the IC50 was 340 nM. The same measure, in the same setting: the figure for `Cc1c(C(O)CN(Cc2ccc(-c3ccc(C#N)c(F)c3)cc2)Cc2cccnc2)ccc2c1COC2=O` (stereo not shown) [Example 11-I, 3-fluoro-4′-(((2-hydroxy-2-(4-methyl-1-oxo-1,3-dihydroisobenzofuran-5-yl)ethyl)(pyridin-3-ylmethyl)amino)methyl)-[1,1′-biphenyl]-4-carbonitrile] is 3700 nM; for `Cc1c([C@@H](O)CNCc2cnn(-c3ccc(-c4noc(=O)n4C)cn3)c2)ccc2c1COC2=O` [Example 171, (R)-3-(6-(4-(((2-hydroxy-2-(4-methyl-1-oxo-1,3-dihydroisobenzofuran-5-yl)ethyl)amino)methyl)-1H-pyrazol-1-yl)pyridin-3-yl)-4-methyl-1,2,4-oxadiazol-5(4H)-one] it is 1000 nM. Same read-out and setting: the figure for `Cc1c([C@@H](O)CNCc2cncc(-c3ccc4oc(=O)n(C)c4c3)c2)ccc2c1COC2=O` [Example 120, (R)-5-(5-(((2-hydroxy-2-(4-methyl-1-oxo-1,3-dihydroisobenzofuran-5-yl)ethyl)amino)methyl)pyridin-3-yl)-3-methylbenzo[d]oxazol-2(3H)-one] is 120 nM; for `Cc1cc(-n2cc(CN(CC3CCOC3)C[C@H](O)c3ccc4c(c3C)COC4=O)cn2)ncc1C#N` (stereo partly drawn) [Example 85, 6-(4-((((R)-2-hydroxy-2-(4-methyl-1-oxo-1,3-dihydroisobenzofuran-5-yl)ethyl)((tetrahydrofuran-3-yl)methyl)amino)methyl)-1H-pyrazol-1-yl)-4-methylnicotinonitrile] it is 230 nM.

The record behind these values is patent publication US10723723B2, “Substituted bicycle heterocyclic derivatives useful as ROMK channel inhibitors” (BRISTOL-MYERS SQUIBB COMPANY, priority 2016, dated 2020).
